Test results reported in US20230165252A1, “ACTIVE COMPOUND COMBINATIONS” (Bayer Aktiengesellschaft, priority 2020, published 2023).
Read-outs that look alike come from different tables or passages of the source.

Columns and labels:
Format in all cases: cell-based
Alternaria alternate = test: in vitro-Test with Alternaria alternate (microtiter growth inhibition); conditions: Alternaria
In short: (§1)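 Fungal spores or mycelium in liquid potato dextrose medium are incubated on wells pre-coated with evaporated test material at 20° C. and 85% humidity. Absorbance at 620 nm is taken initially and 3-5 days post-application; efficacy (%) is scaled from untreated control growth (0%) to no growth (100%).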

Cercospora beticola = test: in vitro-Test with Cercospora beticola (microtiter growth inhibition); conditions: Cercospora beticola, read-out: Efficacy %
In short: as §1

Cordana musae = test: in vitro-Test with Cordana musae (microtiter growth inhibition); conditions: Neocordana musae, single substance, read-out: Efficacy; for inhibition of growth at 0.02 ppm: 0.020 ppm
In short: as §1

Fusarium culmorum = test: in vitro-Test with Fusarium culmorum (microtiter growth inhibition); conditions: Fusarium culmorum, read-out: Efficacy; for inhibition of growth at 0.02 ppm: 0.020 ppm
In short: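 Compound or mixture, dried from methanol/emulsifier, overlaid with liquid potato dextrose medium carrying F. culmorum spores or mycelium; incubated at 20° C, 85% relative humidity. Growth measured as extinction at 620 nm 3-5 days after application, efficacy % relative to untreated control (0% = control growth, 100% = none). Synergy judged against calculated expected efficacy (E).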

Diaporthe citri = test: in vitro-Test with Diaporthe citri (microtiter growth inhibition); conditions: Diaporthe citri, read-out: Efficacy; for inhibition of growth at 0.02 ppm: 0.020 ppm
In short: as §1

[1] = test system: Colletotrichum lindemuthianum; test: in vitro-Test with Colletotrichum lindemuthianum (microtiter growth inhibition); conditions: Colletotrichum lindemuthianum, read-out: Efficacy %; for inhibition of growth at 0.004 ppm: applied alone at 0.004 ppm; for inhibition of growth at 0.02 ppm: applied alone at 0.020 ppm; for inhibition of growth at 0.1 ppm: applied alone at 0.1 ppm; for inhibition of growth at 0.5 ppm: applied alone at 0.5 ppm
Description: The degree of efficacy expressed in % is denoted: 0% means an efficacy, which corresponds to that of the control, while an efficacy of 100% means that no disease is observed.
If the actual fungicidal activity exceeds the calculated value, then the activity of the combination is super-additive, i.e. a synergistic effect exists. In this case, the efficacy, which was actually observed, must be greater than the value for the expected efficacy (E), that was calculated from the abovementioned formula.
Example: In Vitro-Test with Fungal Microorganisms
Wells of 96-well microtiter plates are filled with 10 μl of a preparation of test compound or compound combination in methanol+emulsifier alkylaryl-polyglycol-ether. Thereafter, the solvent is evaporated in a hood. At the next step, 100 μl of liquid potato dextrose medium is given into each well, that has been amended with an appropriate concentration of spores or mycelium suspension of the test fungus.
With the aid of a photometer, the extinction in all wells is measured at the wavelength of 620 nm.
The microtiter plates are incubated at 20° C. and 85% relative humidity. The inhibition of growth is determined again photometrically 3-5 days after the application. Efficacy is calculated in relation to the untreated control, 0% efficacy means fungal growth as high as in untreated control while 100% efficacy means no fungal growth is measured.

Parastagonospora nodorum = test: in vitro-Test with Parastagonospora nodorum (microtiter growth inhibition); conditions: Parastagonospora nodorum, compound alone, read-out: Efficacy %; for inhibition of growth at 0.02 ppm: 0.020 ppm
In short: as §1

[2] = test system: Ustilago segetum var. avenae; test: in vitro-Test with Ustilago segetum var. avenae (microtiter growth inhibition); conditions: read-out: Efficacy %; for inhibition of growth at 0.02 ppm: 0.020 ppm
In short: as §1

[3] = applied alone, read-out: Efficacy

| SMILES | inhibition of growth at 0.004 ppm (Cercospora beticola; alone, 0.004 ppm) | inhibition of growth at 0.02 ppm (Cercospora beticola; alone, 0.020 ppm) | inhibition of growth at 0.1 ppm (Cercospora beticola; alone, 0.1 ppm) | inhibition of growth at 0.5 ppm (Cercospora beticola; alone, 0.5 ppm) | inhibition of growth at 0.004 ppm (Cordana musae) | inhibition of growth at 0.02 ppm (Cordana musae) | inhibition of growth at 0.1 ppm (Cordana musae) | inhibition of growth at 0.5 ppm (Cordana musae) | inhibition of growth at 0.004 ppm (Fusarium culmorum) | inhibition of growth at 0.02 ppm (Fusarium culmorum) | inhibition of growth at 0.1 ppm (Fusarium culmorum) | inhibition of growth at 0.5 ppm (Fusarium culmorum) | inhibition of growth at 0.004 ppm (Diaporthe citri; applied alone) | inhibition of growth at 0.02 ppm (Diaporthe citri; applied alone) | inhibition of growth at 0.1 ppm (Diaporthe citri; applied alone) | inhibition of growth at 0.5 ppm (Diaporthe citri; applied alone) | inhibition of growth at 0.004 ppm [1] | inhibition of growth at 0.02 ppm [1] | inhibition of growth at 0.1 ppm [1] | inhibition of growth at 0.5 ppm [1] | other results |
| --- | --- | --- | --- | --- | --- | --- | --- | --- | --- | --- | --- | --- | --- | --- | --- | --- | --- | --- | --- | --- | --- |
| Cc1ccc(C(F)(F)CNC(=O)c2c(Oc3cccc(C4CC4)c3F)nnc(Cl)c2C)c(Cl)c1 [Compound I-746, 6-chloro-N-[2-(2-chloro-4-methylphenyl)-2,2-difluoroethyl]-3-(3-cyclopropyl-2-fluoro-phenoxy)-5-methylpyridazine-4-carboxamide] | 0% | 5% | 4% | 26% | 0% | 10% | 79% | 100% | 0% | 0% | 0% | 0% | 0% | 0% | 2% | 51% | 0% | 14% | 100% | 100% | inhibition of growth at 0.004 ppm (Alternaria alternate; alone, read-out: Efficacy %): 0%; inhibition of growth at 0.02 ppm (Alternaria alternate; 0.02 ppm, alone, read-out: Efficacy %): 0%; inhibition of growth at 0.1 ppm (Alternaria alternate; alone, read-out: Efficacy %): 22%; inhibition of growth at 0.5 ppm (Alternaria alternate; alone, read-out: Efficacy %): 100%; inhibition of growth at 0.004 ppm (Parastagonospora nodorum): 0%; inhibition of growth at 0.02 ppm (Parastagonospora nodorum): 0%; inhibition of growth at 0.1 ppm (Parastagonospora nodorum): 31%; inhibition of growth at 0.5 ppm (Parastagonospora nodorum): 100%; inhibition of growth at 0.004 ppm ([2]; compound alone): 0%; inhibition of growth at 0.02 ppm ([2]; compound alone): 2%; inhibition of growth at 0.1 ppm ([2]; compound alone): 0%; inhibition of growth at 0.5 ppm ([2]; compound alone): 0%; inhibition of growth at 0.004 ppm ([2]; single compound): 0%; inhibition of growth at 0.02 ppm ([2]; single compound): 2%; inhibition of growth at 0.1 ppm ([2]; single compound): 0%; inhibition of growth at 0.5 ppm ([2]; single compound): 0% |
| Cc1ccc(C(F)(F)CNC(=O)c2c(Oc3cccc(C4CC4)c3F)nnc(Cl)c2C)cc1C [Compound I-749, 6-chloro-3-(3-cyclopropyl-2-fluorophenoxy)-N-[2-(3,4-dimethylphenyl)-2,2-difluoroethyl]-5-methylpyridazine-4-carboxamide] | 0% | 0% | 8% | 22% | 0% | 64% | 100% | 100% | 0% | 10% | 11% | 18% | 0% | 0% | 0% | 100% | 1% | 19% | 100% | 100% | inhibition of growth at 0.004 ppm (Alternaria alternate; [3]): 0%; inhibition of growth at 0.02 ppm (Alternaria alternate; applied alone, 0.020 ppm, read-out: Efficacy): 14%; inhibition of growth at 0.1 ppm (Alternaria alternate; [3]): 24%; inhibition of growth at 0.5 ppm (Alternaria alternate; [3]): 100%; inhibition of growth at 0.004 ppm (Cercospora beticola; applied alone at 0.004 ppm): 0%; inhibition of growth at 0.02 ppm (Cercospora beticola; applied alone at 0.020 ppm): 0%; inhibition of growth at 0.1 ppm (Cercospora beticola; applied alone at 0.1 ppm): 8%; inhibition of growth at 0.5 ppm (Cercospora beticola; applied alone at 0.5 ppm): 22%; inhibition of growth at 0.004 ppm (Diaporthe citri): 0%; inhibition of growth at 0.02 ppm (Diaporthe citri): 0%; inhibition of growth at 0.1 ppm (Diaporthe citri): 0%; inhibition of growth at 0.5 ppm (Diaporthe citri): 100%; inhibition of growth at 0.004 ppm (Parastagonospora nodorum): 0%; inhibition of growth at 0.02 ppm (Parastagonospora nodorum): 0%; inhibition of growth at 0.1 ppm (Parastagonospora nodorum): 92%; inhibition of growth at 0.5 ppm (Parastagonospora nodorum): 100%; inhibition of growth at 0.004 ppm ([2]; single compound): 1%; inhibition of growth at 0.02 ppm ([2]; single compound): 0%; inhibition of growth at 0.1 ppm ([2]; single compound): 0%; inhibition of growth at 0.5 ppm ([2]; single compound): 0% |
